Data as given in patent US5356898A, “Substituted 4,6-di-tertiary-butyl 5-hydroxy-pyrimidines” (Warner-Lambert Company, priority 1993, dated 1994).

Legend:
[1] = tested on: cyclooxygenase; assay: ARBC whole cell cyclooxygenase assay (PGF2α formation in RBL-1 cells, RIA); type: cell-based, rat; settings: @ 10 μM; inhibition of PGF2α formation, RBL-1 cells stimulated with calcium ionophore A23187
Experimental: (§1) ARBL/ARBC Whole Cell 5-Lipoxygenase and Cyclooxygenase Assays The rat basophilic leukemia cell line (RBL-1) was obtained from the American Type Culture Collection (Rockville, Md.). Radioimmunoassay (RIA) kits of LTB4 and PGF2.sbsb.α were obtained from Amersham (Arlington Heights, Ill.) and Seragen (Boston, Mass.), respectively. RBL-1 cells are grown in suspension culture in Eagle's minimum essential medium supplemented with 12% fetal bovine serum at 37° C. in an incubator supplied with air-5% carbon dioxide. Cells are harvested by centrifugation. They are washed with cold phosphate buffered saline pH 7.4 (PBS; NaCl, 7.1 g; Na2 HPO4, 1.15 g; KH2 PO4, 0.2 g; and KCl, 0.2 g/l). Cells are finally suspended in PBS containing 1.0 mM calcium at a density of 2×10^6 cells/mi. Cells are incubated with and without test agent (in DMSO) (1% DMSO is without effect on arachidonic acid metabolism) for ten minutes at room temperature. Calcium ionophore A23187 (5 μM) is added and cells are incubated for seven minutes at 37° C. The reaction is stopped by chilling the tubes on ice for ten minutes. Cells are separated by centrifugation and the supernatant is stored at -20° Aliquots (100 μl) are analyzed for LTB4 and PGF2.sbsb.α using radioimmunoassay kits as provided by the supplier. […]

[2] = tested on: 5-lipoxygenase; assay: ARBL whole cell 5-lipoxygenase assay (LTB4 formation in RBL-1 cells, RIA); type: cell-based, rat; settings: @ 10 μM; inhibition of LTB4 formation, RBL-1 cells stimulated with calcium ionophore A23187
Experimental: as §1

SMILES	ARBC [1]	ARBL [2]
CSc1nnc(-c2nc(C(C)(C)C)c(O)c(C(C)(C)C)n2)s1 [Example 13, 5-[4,6-Bis(1,1-dimethylethyl)-5-hydroxy-2-pyrimidinyl]-2-thiomethoxy-1,3,4-3H-thiadiazole]	85%	93%
CC(C)(C)c1nc(C#N)nc(C(C)(C)C)c1O [Example 19, 4,6-Bis.(1,1-dimethylethyl)-5-hydroxy-2-pyrimidine carbonitrile]	45%	70%
